Where a name gives a salt, the structure may show the parent alone.
How the values were obtained:
WEE1 = molecular target: T1, WEE1 (Homo sapiens, UniProt P30291); test: Selectivity versus WEE1 assay (ADP-Glo enzymatic assay); format: biochemical; settings: banded; for IC50: ADP-Glo, 15 nM WEE1, 60 minutes at 26° C.; for PKMYT1 vs. WEE1 selectivity: fold difference in selectivity for PKMYT1 over WEE1, ">N" = at least in this band but could be higher
T1 construct: purchased Thermo Fisher PR7373A
Procedure: Selectivity versus WEE1 assay: Selectivity was established using the same format as outlined for PKMYT1. After dosing of compounds via the Echo acoustic dispenser—as described above—WEE1 (Thermo Fisher PR7373A) was added to each well at a final concentration of 15 nM in a buffer of 50 mM HEPES (pH 7.5), 10 mM MgCl2, 1 mM EGTA, 0.01% Brij-35, 1% DMSO. 30 µM ATP was added to start the reaction with the final assay volume being 4 μl. The plate was then incubated for 60 minutes at 26° C. before the addition of 4 μl of ADP-Glo Reagent. Following a further 60 minute incubation the assay signal was developed by the addition of 8 μl ADP-Glo Detection Reagent. After 60 minutes the luminescence signal was read on a PHERAStar FS microplate reader (BMG Labtech).
Data analysis: Data was captured and analysed within the Dotmatics Studies software module where dose response curves were generated and IC50 values determined. Acceptance and verification of data followed strict in-house business rules which are summarised as follows. […] Technical and biological replicates of each compound are routinely tested and replicate IC50 values must fall within 3-fold of each other with dose response curves showing ‘goodness of fit’ r2 values >0.9. Failure to meet any of these defined criteria result in rejection of data.

Human PKMYT1 = molecular target: T2, Human PKMYT1 (Homo sapiens, UniProt Q99640); test: PKMYT1 biochemical ADP-Glo enzymatic assay; settings: ADP-Glo; 15 nM PKMYT1 kinase domain, 500 µM ATP, 60 minutes at 26° C.; banded
T2 construct: Human PKMYT1 75-362 was cloned as a TEV cleavable 6xHis fusion; 6xHis (TEV cleavable) (cleaved yes); made in house; host or cells: bacterial cells
T2 sequence (Q99640 75-362): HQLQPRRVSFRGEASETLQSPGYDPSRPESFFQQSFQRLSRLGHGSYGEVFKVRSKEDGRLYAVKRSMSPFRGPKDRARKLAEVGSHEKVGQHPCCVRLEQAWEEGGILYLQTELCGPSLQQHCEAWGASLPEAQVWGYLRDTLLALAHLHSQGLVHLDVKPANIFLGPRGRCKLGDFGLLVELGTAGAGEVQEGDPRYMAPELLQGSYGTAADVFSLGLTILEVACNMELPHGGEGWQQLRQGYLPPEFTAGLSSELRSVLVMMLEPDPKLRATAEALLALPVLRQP
Method in brief: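 Intrinsic ATPase activity of E. coli-expressed, tag-cleaved human PKMYT1 kinase domain (75-362), 15 nM, with 500 µM ATP in HEPES pH 7.5/MgCl2/EGTA/Brij-35, 1% DMSO, 60 min at 26 °C. ADP formed was read by ADP-Glo Max luminescence; IC50 from 10-point, 3-fold dilution curves.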

T1 sequence (P30291 whole entry): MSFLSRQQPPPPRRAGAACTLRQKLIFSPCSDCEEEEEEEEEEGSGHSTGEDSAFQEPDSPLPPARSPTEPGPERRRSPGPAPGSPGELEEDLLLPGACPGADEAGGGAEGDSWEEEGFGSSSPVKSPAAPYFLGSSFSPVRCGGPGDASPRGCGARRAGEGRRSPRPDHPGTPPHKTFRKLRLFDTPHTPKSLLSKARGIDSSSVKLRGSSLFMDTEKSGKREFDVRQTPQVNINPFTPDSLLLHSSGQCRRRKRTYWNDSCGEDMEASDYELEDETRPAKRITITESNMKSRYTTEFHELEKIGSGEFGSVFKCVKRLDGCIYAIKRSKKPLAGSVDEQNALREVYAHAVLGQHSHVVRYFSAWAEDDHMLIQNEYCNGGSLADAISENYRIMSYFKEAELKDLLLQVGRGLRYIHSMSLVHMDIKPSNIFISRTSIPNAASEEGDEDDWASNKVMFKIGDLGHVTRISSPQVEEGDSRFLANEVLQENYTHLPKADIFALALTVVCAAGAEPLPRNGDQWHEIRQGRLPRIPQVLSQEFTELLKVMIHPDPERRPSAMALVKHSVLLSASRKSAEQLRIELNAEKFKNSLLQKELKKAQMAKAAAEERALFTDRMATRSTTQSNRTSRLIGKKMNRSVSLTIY

IC50 (WEE1)	PKMYT1 vs. WEE1 selectivity (WEE1)	IC50 (Human PKMYT1)	SMILES
> 11 µM	>X (100-<1000 fold)	0.05 to 1 µM	Cc1ccc(O)c(C)c1NC(=O)c1cnc(Nc2ccn([C@@H]3CCN(C(=O)C(C)(C)C)C3)n2)s1 [BAA-080, 2-[[1-[(3R)-1-(2.2-Dimethylpropanoyl)pyrrolidin-3-yl]pyrazol-3-yl]amino]-N-(3-hydroxy-2,6-dimethyl-phenyl)thiazole-5-carboxamide]
> 11 µM	>X (100-<1000 fold)	0.05 to 1 µM	Cc1ccc(O)c(C)c1NC(=O)c1cnc(Nc2ccn([C@@H]3CCN(C(=O)CC(C)(C)C)C3)n2)s1 [BAA-081, 2-[[1-[(3R)-1-(3,3-dimethylbutanoyl)pyrrolidin-3-yl]pyrazol-3-yl]amino]-N-(3-hydroxy-2,6-dimethyl-phenyl)thiazole-5-carboxamide]
> 11 µM	>X (100-<1000 fold)	0.05 to 1 µM	Cc1ccc(O)c(C)c1NC(=O)c1cnc(Nc2ccn([C@@H]3CCN(C(=O)C4CCOCC4)C3)n2)s1 [BAA-082]
> 11 µM	>Y (1000-5000 fold)	0.05 to 1 µM	Cc1ccc(O)c(C)c1NC(=O)c1cnc(Nc2ccn([C@@H]3CCN(C(=O)Cc4ccccc4)C3)n2)s1 [BAA-083]
> 11 µM	>Y (1000-5000 fold)	0.05 to 1 µM	Cc1ccc(O)c(C)c1NC(=O)c1cnc(Nc2ccn([C@@H]3CCN(C(=O)CC(F)(F)F)C3)n2)s1 [BAA-084]
> 11 µM	>Y (1000-5000 fold)	< 0.05 µM	CCC(=O)N1CC[C@@H](n2ccc(Nc3ncc(C(=O)Nc4c(C)ccc(O)c4C)s3)n2)C1 [BAA-085]
> 11 µM	>Y (1000-5000 fold)	0.05 to 1 µM	Cc1ccc(O)c(C)c1NC(=O)c1cnc(Nc2ccn([C@@H]3CCN(C(=O)C(C)C)C3)n2)s1 [BAA-086]
> 11 µM	>X (100-<1000 fold)	0.05 to 1 µM	Cc1ccc(O)c(C)c1NC(=O)c1cnc(Nc2ccn([C@@H]3CCN(C(=O)CC4CCOCC4)C3)n2)s1 [BAA-090]
> 11 µM	>X (100-<1000 fold)	0.05 to 1 µM	COC(=O)CCC(=O)N1CC[C@@H](n2ccc(Nc3ncc(C(=O)Nc4c(C)ccc(O)c4C)s3)n2)C1 [BAA-091]
> 11 µM	>X (100-<1000 fold)	0.05 to 1 µM	COCC(=O)N1CC[C@@H](n2ccc(Nc3ncc(C(=O)Nc4c(C)ccc(O)c4C)s3)n2)C1 [BAA-092]
> 11 µM	>Y (1000-5000 fold)	0.05 to 1 µM	Cc1ccc(O)c(C)c1NC(=O)c1cnc(Nc2ccn([C@@H]3CCN(C(=O)Cc4ccccc4F)C3)n2)s1 [BAA-095]
> 11 µM	>Y (1000-5000 fold)	0.05 to 1 µM	Cc1ccc(O)c(C)c1NC(=O)c1cnc(Nc2ccn([C@@H]3CCN(C(=O)CC(C)C)C3)n2)s1 [BAA-096, N-(3-hydroxy-2,6-dimethyl-phenyl)-2-[[1-[(3R)-1-(3-methylbutanoyl)pyrrolidin-3-yl]pyrazol-3-yl]amino]thiazole-5-carboxamide]
> 11 µM	>X (100-<1000 fold)	0.05 to 1 µM	Cc1ccc(O)c(C)c1NC(=O)c1cnc(Nc2ccn([C@@H]3CCN(C(=O)CC4CCCCC4)C3)n2)s1 [BAA-097]
> 11 µM	>X (100-<1000 fold)	0.05 to 1 µM	Cc1ccc(O)c(C)c1NC(=O)c1cnc(Nc2ccn([C@@H]3CCN(C(=O)Cc4cccs4)C3)n2)s1 [BAA-098]

More lines, now with the values behind:

SMILES	IC50 (WEE1)	PKMYT1 vs. WEE1 selectivity (WEE1)	IC50 (Human PKMYT1)
Cc1ccc(O)c(C)c1NC(=O)c1cnc(NCCCN2CCOCC2)s1 [BAA-065, N-(3-hydroxy-2,6-dimethyl-phenyl)-2-(3-morpholinopropylamino)thiazole-5-carboxamide]	> 11 µM	>X (100-<1000 fold)	0.05 to 1 µM
Cc1ccc(O)c(C)c1NC(=O)c1cnc(NCC2CCN(C(=O)OC(C)(C)C)CC2)s1 [BAA-066]	> 11 µM	>X (100-<1000 fold)	0.05 to 1 µM
Cc1ccc(O)c(C)c1NC(=O)c1cnc(NC2CCN(S(C)(=O)=O)CC2)s1 [BAA-067, N-(3-hydroxy-2,6-dimethyl-phenyl)-2-[(1-methylsulfonyl-4-piperidyl)amino]thiazole-5-carboxamide]	> 11 µM	>W (10-<100 fold)	1 to 11 µM
Cc1ccc(O)c(C)c1NC(=O)c1cnc(NCCNC(=O)OC(C)(C)C)s1 [BAA-068, tert-butyl N-[2-[5-[(3-hydroxy-2,6-dimethyl-phenyl)carbamoyl]thiazol-2-yllamino]ethyl]carbamate]	> 11 µM	>X (100-<1000 fold)	0.05 to 1 µM
Cc1ccc(O)c(C)c1NC(=O)c1cnc(NCCCN2CCS(=O)(=O)CC2)s1 [BAA-072, 2-[3-(1,1-dioxo-1,4-thiazinan-4-yl)propylamino]-N-(3-hydroxy-2,6-dimethyl-phenyl)thiazole-5-carboxamide]	> 11 µM	>X (100-<1000 fold)	0.05 to 1 µM
Cc1ccc(O)c(C)c1NC(=O)c1cnc(NCCCN2CCN(C(=O)OC(C)(C)C)CC2)s1 [BAA-073, tert-butyl 4-[3-[[5-[(3-hydroxy-2,6-dimethyl-phenyl)carbamoyl]thiazol-2-yl]amino]propyl]piperazine-1-carboxylate]	> 11 µM	>X (100-<1000 fold)	0.05 to 1 µM
CCC(=O)NCCCNc1ncc(C(=O)Nc2c(C)ccc(O)c2C)s1 [BAA-076, N-(3-hydroxy-2,6-dimethyl-phenyl)-2-[3-(propanoylamino)propylamino]thiazole-5-carboxamide]	> 11 µM	>W (10-<100 fold)	1 to 11 µM
CCC(=O)N1CCC(CNc2ncc(C(=O)Nc3c(C)ccc(O)c3C)s2)CC1 [BAA-077, N-(3-hydroxy-2,6-dimethyl-phenyl)-2-[(1-propanoyl-4-piperidyl)methylamino]thiazole-5-carboxamide]	> 11 µM	>X (100-<1000 fold)	0.05 to 1 µM
Cc1ccc(O)c(C)c1NC(=O)c1cnc(NCCC(=O)N2CCOCC2)s1 [BAA-078, N-(3-hydroxy-2,6-dimethyl-phenyl)-2-[(3-morpholino-3-oxo-propyl)amino]thiazole-5-carboxamide]	> 11 µM	>X (100-<1000 fold)	0.05 to 1 µM
Cc1ccc(O)c(C)c1NC(=O)c1cnc(NCC2CCNCC2)s1 [BAA-079, N-(3-hydroxy-2,6-dimethyl-phenyl)-2-(4-piperidylmethylamino)thiazole-5-carboxamide hydrochloride]	> 11 µM	>W (10-<100 fold)	1 to 11 µM
Cc1ccc(O)c(C)c1NC(=O)c1cnc(Nc2ccn([C@@H]3CCN(C(=O)c4ccccc4)C3)n2)s1 [BAA-087]	> 11 µM		0.05 to 1 µM
Cc1ccc(O)c(C)c1NC(=O)c1cnc(Nc2ccn([C@@H]3CCN(C(=O)COc4ccccc4)C3)n2)s1 [BAA-088]	> 11 µM	>X (100-<1000 fold)	0.05 to 1 µM
COc1ccc(CC(=O)N2CC[C@@H](n3ccc(Nc4ncc(C(=O)Nc5c(C)ccc(O)c5C)s4)n3)C2)cc1 [BAA-089]	> 11 µM	>X (100-<1000 fold)	0.05 to 1 µM
Cc1ccc(O)c(C)c1NC(=O)c1cnc(Nc2ccn([C@@H]3CCN(C(=O)Cc4ccc(F)cc4)C3)n2)s1 [BAA-093]	> 11 µM	>X (100-<1000 fold)	0.05 to 1 µM
Cc1ccc(O)c(C)c1NC(=O)c1cnc(Nc2ccn([C@@H]3CCN(C(=O)C(C)(C)c4ccccc4)C3)n2)s1 [BAA-094]	> 11 µM	>X (100-<1000 fold)	0.05 to 1 µM
Cc1ccc(O)c(C)c1NC(=O)c1cnc(Nc2ccn([C@@H]3CCN(C(=O)C(F)(F)c4ccccc4)C3)n2)s1 [BAA-099, 2-[[1-[(3R)-1-(2,2-Difluoro-2-phenyl-acetyl)pyrrolidin-3-yl]pyrazol-3-yl]amino]-N-(3-hydroxy-2,6-dimethyl-phenyl)thiazole-5-carboxamide]	> 11 µM	>X (100-<1000 fold)	0.05 to 1 µM

Source: US20260297042A1, “BIARYLAMIDE DERIVATIVES AND THEIR USE AS PKMYT1 INHIBITORS” (CANCER RESEARCH TECHNOLOGY LIMITED, priority 2023, published 2026)
